Active and inactive are the calls of the source. The calls are words filed in the database; no cut-off is given here.

The test has as its system Cortical neurone. Briefly: Neurotrophic activity in Sprague-Dawley rat cortical neurons assessed as promotion of neurite outgrowth at 0.1 to 10 uM. The class given is functional.
Turning to `C[C@@H]1C[C@@H](O)[C@@]2(O)[C@@]13C[C@@]1(O)OC(OC[C@@]2(C)[C@@]1(C)O)[C@@H]3O`, the result was inactive. With `C[C@@H]1CC=C2[C@@]13C[C@@]1(O)OC(OC[C@@]2(C)[C@@]1(C)O)[C@@H]3O`, the result was inactive. Under `C[C@@H]1CC[C@@]2(O)C13CC(=O)C1(C)C2(C)CO[C@]1(OC(=O)c1ccccc1)[C@@H]3O` stands “inactive”. The entry for `C[C@@H]1CC[C@@]2(O)C13CC(=O)C1(C)C2(C)CO[C@]1(O)[C@@H]3O` is “Active”.

For `C[C@@H]1CC[C@@]2(O)[C@@]13C[C@@]1(O)OC(OC[C@@]2(C)[C@@]1(C)O)[C@@H]3O`, the outcome was inactive.

Turning to `CC1=CC[C@]2(O)[C@@]3(C)COC4O[C@](O)(C[C@@]12[C@H]4O)[C@]3(C)O`, the outcome was inactive.
